Consider seven compounds from PMC12027443, “Surface Plasmon Resonance (SPR) for the Binding Kinetics Analysis of Synthetic Cannabinoids: Advancing CB1 Receptor Interaction Studies” (International Journal of Molecular Sciences, 2025).

The target in data set [1] is T1, CB1 receptor (Homo sapiens, UniProt P21554). Also noted: method as in PMID 26686391. To be noted: read-out: GTPγS Binding Assay Ki Value; Table 2; cited from earlier work.
In data set [2] the target is T1, CB1 receptor. Also noted: method as in PMID 31021521. To be noted: read-out: βarr2 Recruitment Assay EC50 Values; HEK293T cell lines; Table 3; cited from earlier work.
Data set [3] concerns mice. Also noted: method as in PMID 40180269. The conditions noted are these: ranking among 4F-ABUTINACA, JWH-018, SDB-005; cited from earlier work.
Data set [4] has as its target T1, CB1 receptor. Details: method as in PMID 40180269. The conditions noted are these: SPR affinity assessment, earlier study, cited from earlier work.
Data set [5] relates to mice. Also noted: method as in PMID 40180269. The conditions noted are these: hypothermia, motor suppression, catalepsy; ranking among 4F-ABUTINACA, JWH-018, SDB-005; cited from earlier work.
The target in data set [6] is T1, CB1 receptor. In words: Surface Plasmon Resonance (SPR) affinity assay, CB1 protein immobilized on CM5 chip (Biacore T200). It counts as binding. How it is done: The ligand immobilization was conducted in four steps: ligand pre-enrichment, activation, coupling, and blocking. To prepare the 1.05× PBS-P buffer, it was diluted from the 10× PBS-P buffer. For ligand pre-enrichment, the Biacore T200 (cytiva, Marlborough, MA, USA; manufactured in Sweden) pre-enrichment program was employed. The 300 μg/mL protein stock solution was diluted to a final concentration of 15 μg/mL using 10 mM sodium acetate solutions at pH 4.0, 4.5, 5.0, and 5.5, respectively. The ligand was flowed over the surface of a blank chip at a flow rate of 30 μL/min to assess the effect of electrostatic adsorption. Based on the response difference and slope, the optimal coupling pH of 4.0 was selected. For activation, the Biacore T200 manual coupling program was used. The carboxylic acid groups on the chip surface were activated by injecting a 1:1 mixture of EDC and NHS from the amino-coupling kit at a flow rate of 10 μL/min for 900 s. During the coupling step, the 300 μg/mL protein stock solution was diluted 10-fold to 30 μg/mL using sodium acetate at pH 4.0. […]
For solvent correction, eight solvent correction points were established, with correction cycles performed at the beginning, end, and every 30 samples during the experiment. […] The system continuously monitored and recorded the sensorgram of the interaction between the sample and the CB1 protein in real time. […]
(Surface plasmon resonance follows binding to a sensor surface in real time, without labels.)

The test system of data set [7] is mice. Also noted: method as in PMID 40180269. The conditions noted are these: cited from earlier work.

SMILES strings stand for the structures. Like-named read-outs stand apart in the source and are kept apart here.

T1 sequence (P21554 whole entry): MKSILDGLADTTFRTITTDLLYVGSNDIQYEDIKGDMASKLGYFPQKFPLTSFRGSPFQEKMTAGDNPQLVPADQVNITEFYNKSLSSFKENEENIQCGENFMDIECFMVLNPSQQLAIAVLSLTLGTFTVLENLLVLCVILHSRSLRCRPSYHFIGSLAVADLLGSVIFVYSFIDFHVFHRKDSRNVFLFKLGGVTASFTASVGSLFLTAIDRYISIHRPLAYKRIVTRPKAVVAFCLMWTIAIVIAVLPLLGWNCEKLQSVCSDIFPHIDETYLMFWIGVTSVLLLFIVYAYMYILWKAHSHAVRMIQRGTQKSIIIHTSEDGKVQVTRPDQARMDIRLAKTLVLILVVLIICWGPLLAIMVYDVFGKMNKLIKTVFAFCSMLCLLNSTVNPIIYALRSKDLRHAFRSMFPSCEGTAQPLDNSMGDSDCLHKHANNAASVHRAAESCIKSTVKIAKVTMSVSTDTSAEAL

As usually defined, the Ki is the dissociation constant of the complex between target and ligand, obtained from inhibition or displacement. Regarding `O=C(NC12CC3CC(CC(C3)C1)C2)c1cn(CCCCCF)c2ccccc12` [STS-135], on CB1 receptor [1], the Ki was 0.00193 µM.
For orientation: EC50 means the concentration that produces a half-maximal response. Turning to `CC(C)C(NC(=O)c1nn(CC2CCCCC2)c2ccccc12)C(N)=O` (centres unmarked) [AB-CHMINACA], the 50% effective concentration (EC50) at CB1 receptor [2] is 0.00034 µM.
A word on the Kd: it is the concentration at which binding is half-saturated. As for `CCCCCn1cc(C(=O)c2cccc3ccccc23)c2ccccc21` [JWH-018], the EC50 on CB1 receptor [2] was 0.0368 µM. In addition, the “reward potential in the CPP test” value in the data set with mice [3] is on record as “intermediate”. For the same compound, the inhibitory constant (Ki) on CB1 receptor [1] was 0.00338 µM. In addition, on CB1 receptor [4], the Kd is 39.3 µM. For the same compound, the “effects in the tetrad test” value in the data set with mice [5] is recorded as “intermediate”.
In the case of `CCCCCn1nc(C(=O)Oc2cccc3ccccc23)c2ccccc21` [SDB-005], the “reward potential in the CPP test” value in the data set on mice [3] was “weaker”. Further, at CB1 receptor [4] (read-out: KD), the Kd was 53 µM. The “effects in the tetrad test” value in the data set on mice [5] is “weaker”.
As for `O=C(NC12CC3CC(CC(C3)C1)C2)c1nn(CCCCCF)c2ccccc12` [5F-AKB-48], the inhibition constant (Ki) at CB1 receptor [1] is 0.00087 µM. For the same compound, the “reduction in the KD value on substitution of parent core from indole to indazole” value at CB1 receptor [6] (5F-AKB-48 versus STS-135) was 50%.
For the compound `O=C(NC12CC3CC(CC(C3)C1)C2)c1nn(CCCCF)c2ccccc12` [4F-ABUTINACA], the “reward potential in the CPP test” value in the data set with mice [3] is reported as “strongest reward potential”. Moreover, the “LD50 (acute toxicity)” value in the data set on mice [7] was 11.62 mg/kg. Further, the Kd at CB1 receptor [4] (read-out: KD) was 20.1 µM. The “effects in the tetrad test” value with mice [5] is “most pronounced effects”.
As to `C=CCCCn1nc(C(=O)NC(C(=O)OC)C(C)(C)C)c2ccccc21` (centres unmarked) [MDMB-4en-PINACA], on CB1 receptor [6] (ratio of KD values, MDMB-4en-PINACA versus AMB-4en-PICA), the “affinity relative to AMB-4en-PICA” value was “six-fold higher affinity”.
